In this assay the target is MMP-13CD (catalytic domain of collagenase-3) (Homo sapiens, UniProt P45452). Nature of the assay: Thiopeptolide substrate hydrolysis inhibition assay, MMP-13CD. Format: biochemical. The settings on record: Table I; thiopeptolide substrate, HEPES pH 7.0, 22° C.; read-out: MMP-13CD IC50. From the text: Thiopeptolide substrates show virtually no decomposition or hydrolysis at or below neutral pH in the absence of a matrix metalloproteinase enzyme.

pIC50: −log10 of the molar value.

Consider 31 molecules from patent publication US20030004172A1, “Fused pyrimidinone matrix metalloproteinase inhibitors” (priority 2001, published 2003).

Consider `COc1cccc(CNC(=O)c2cc3c(=O)n(Cc4ccccc4)c(=O)n(C)c3s2)c1OC` [Example 334, 3-Benzyl-1-methyl-2,4-dioxo-1,2,3,4-tetrahydro-thieno[2,3-d]pyrimidine-6-carboxylic acid 2,3-dimethoxy-benzylamide], for which the pIC50 was less than 4.00.

Turning to `Cn1c(=O)n(Cc2ccccc2)c(=O)c2cc(C(=O)NCc3cccc(C(F)(F)F)c3)sc21` [Example 335, 3-Benzyl-1-methyl-2,4-dioxo-1,2,3,4-tetrahydro-thieno[2,3-d]pyrimidine-6-carboxylic acid 3-trifluoromethyl-benzylamide], the negative-log IC50 (pIC50) is 6.60.

With `COc1ccccc1CNC(=O)c1cc2c(=O)n(Cc3ccccc3)c(=O)n(C)c2s1` [Example 336, 3-Benzyl-1-methyl-2,4-dioxo-1,2,3,4-tetrahydro-thieno[2,3-d]pyrimidine-6-carboxylic acid 2-methoxy-benzylamide], the pIC50 was 4.52.

Consider `Cc1ccccc1CNC(=O)c1cc2c(=O)n(Cc3ccccc3)c(=O)n(C)c2s1` [Example 337, 3-Benzyl-1-methyl-2,4-dioxo-1,2,3,4-tetrahydro-thieno[2,3-d]pyrimidine-6-carboxylic acid 2-methyl-benzylamide], for which the negative-log IC50 (pIC50) is less than 4.00.

With `Cn1c(=O)n(Cc2ccccc2)c(=O)c2cc(C(=O)NCCCCc3ccccc3)sc21` [Example 338, 3-Benzyl-1-methyl-2,4-dioxo-1,2,3,4-tetrahydro-thieno[2,3-d]pyrimidine-6-carboxylic acid (4-phenyl-butyl)-amide], the negative-log IC50 (pIC50) is less than 4.00.

Turning to `Cn1c(=O)n(Cc2ccccc2)c(=O)c2cc(C(=O)NCc3cccnc3)sc21` [Example 339, 3-Benzyl-1-methyl-2,4-dioxo-1,2,3,4-tetrahydro-thieno[2,3-d]pyrimidine-6-carboxylic acid (pyridin-3-ylmethyl)-amide], the pIC50 is 6.42.

`COc1ccc(CNC(=O)c2cc3c(=O)n(Cc4ccccc4)c(=O)n(C)c3s2)cc1` [Example 340, 3-Benzyl-1-methyl-2,4-dioxo-1,2,3,4-tetrahydro-thieno[2,3-d]pyrimidine-6-carboxylic acid 4-methoxy-benzylamide]: the negative-log IC50 (pIC50) was 6.92.

In the case of `COc1cccc(CCNC(=O)c2cc3c(=O)n(Cc4ccccc4)c(=O)n(C)c3s2)c1` [Example 342, 3-Benzyl-1-methyl-2,4-dioxo-1,2,3,4-tetrahydro-thieno[2,3-d]pyrimidine-6-carboxylic acid[2-(3-methoxy-phenyl)-ethyl]-amide], the pIC50 is less than 4.00.

As for `COc1cccc(CNC(=O)c2cc3c(=O)n(Cc4ccccc4)c(=O)n(C)c3s2)c1` [Example 343, 3-Benzyl-1-methyl-2,4-dioxo-1,2,3,4-tetrahydro-thieno[2,3-d]pyrimidine-6-carboxylic acid 3-methoxy-benzylamide], the negative-log IC50 (pIC50) was 7.36.

Turning to `Cn1c(=O)n(Cc2ccccc2)c(=O)c2cc(C(=O)NCc3cccs3)sc21` [Example 344, 3-Benzyl-1-methyl-2,4-dioxo-1,2,3,4-tetrahydro-thieno[2,3-d]pyrimidine-6-carboxylic acid (thiophen-2-ylmethyl)-amide], the pIC50 is 5.44.

Regarding `Cn1c(=O)n(Cc2ccccc2)c(=O)c2cc(C(=O)NCc3ccccc3Cl)sc21` [Example 345, 3-Benzyl-1-1-methyl-2,4-dioxo-1,2,3,4-tetrahydro-thieno[2,3-d]pyrimidine-6-carboxylic acid 2-chloro-benzylamide], the pIC50 was 4.52.

Turning to `Cc1ccc(CNC(=O)c2cc3c(=O)n(Cc4ccccc4)c(=O)n(C)c3s2)o1` [Example 346, 3-Benzyl-1-methyl-2,4-dioxo-1,2,3,4-tetrahydro-thieno[2,3-d]pyrimidine-6-carboxylic acid (5-methyl-furan-2-ylmethyl)-amide], the pIC50 was 5.00.

For `Cn1c(=O)n(Cc2ccccc2)c(=O)c2cc(C(=O)NCC(c3ccccc3)c3ccccc3)sc21` [Example 347, 3-Benzyl-1-methyl-2,4-dioxo-1,2,3,4-tetrahydro-thieno[2,3-d]pyrimidine-6-carboxylic acid (2,2-diphenyl-ethyl)-amide], the negative logarithm of the IC50 (pIC50) was 4.80.

With `COc1ccccc1CCNC(=O)c1cc2c(=O)n(Cc3ccccc3)c(=O)n(C)c2s1` [Example 348, 3-Benzyl-1-methyl-2,4-dioxo-1,2,3,4-tetrahydro-thieno[2,3-d]pyrimidine-6-carboxylic acid[2-(2-methoxy-phenyl)-ethyl]-amide], the pIC50 is 4.52.

`Cn1c(=O)n(Cc2ccccc2)c(=O)c2cc(C(=O)NCCc3cccc(C(F)(F)F)c3)sc21` [Example 349, 3-Benzyl-1-methyl-2,4-dioxo-1,2,3,4-tetrahydro-thieno[2,3-d]pyrimidine-6-carboxylic acid[2-(3-trifluoromethyl-phenyl)-ethyl]-amide]: the pIC50 is less than 4.00.

On to `Cn1c(=O)n(Cc2ccccc2)c(=O)c2cc(C(=O)NCc3ccc(Br)cc3)sc21` [Example 350, 3-Benzyl-1-methyl-2,4-dioxo-1,2,3,4-tetrahydro-thieno[2,3-d]pyrimidine-6-carboxylic acid 4-bromo-benzylamide], for which the pIC50 is 6.03.

For the molecule `Cn1c(=O)n(Cc2ccccc2)c(=O)c2cc(C(=O)NCCc3c[nH]c4ccccc34)sc21` [Example 351, 3-Benzyl-1-methyl-2,4-dioxo-1,2,3,4-tetrahydro-thieno[2,3-d]pyrimidine-6-carboxylic acid[2-(1H-indol-3-yl)-ethyl]-amide], the pIC50 was 5.70.

Turning to `Cn1c(=O)n(Cc2ccccc2)c(=O)c2cc(C(=O)NCc3cc(Cl)cc(Cl)c3)sc21` [Example 352, 3-Benzyl-1-methyl-2,4-dioxo-1,2,3,4-tetrahydro-thieno[2,3-d]pyrimidine-6-carboxylic acid 3 ,5-dichloro-benzylamide], the pIC50 is less than 4.00.

`Cn1c(=O)n(Cc2ccccc2)c(=O)c2cc(C(=O)NC3CCc4ccccc43)sc21` (stereo not shown) [Example 353, 3-Benzyl-1-methyl-2,4-dioxo-1,2,3,4-tetrahydro-thieno[2,3-d]pyrimidine-6-carboxylic acid indan-1-ylamide]: the pIC50 was less than 4.00.

For the molecule `Cn1c(=O)n(Cc2ccccc2)c(=O)c2cc(C(=O)NCc3ccco3)sc21` [Example 354, 3-Benzyl-1-methyl-2,4-dioxo-1,2,3,4-tetrahydro-thieno[2,3-d]pyrimidine-6-carboxylic acid (furan-2-ylmethyl)-amide], the pIC50 was 4.52.

Regarding `COc1ccc(CCNC(=O)c2cc3c(=O)n(Cc4ccccc4)c(=O)n(C)c3s2)cc1` [Example 355, 3-Benzyl-1-methyl-2,4-dioxo-1,2,3,4-tetrahydro-thieno[2,3-d]pyrimidine-6-carboxylic acid[2-(4-methoxy-phenyl)-ethyl]-amide], the negative-log IC50 (pIC50) was less than 4.00.

For `COc1ccc(CNC(=O)c2cc3c(=O)n(Cc4ccccc4)c(=O)n(C)c3s2)c(OC)c1` [Example 356, 3-Benzyl-1-methyl-2,4-dioxo-1,2,3,4-tetrahydro-thieno[2,3-d]pyrimidine-6-carboxylic acid 2,4-dimethoxy-benzylamide], the pIC50 is 5.00.

Regarding `Cn1c(=O)n(Cc2ccccc2)c(=O)c2cc(C(=O)NCc3ccc(Cl)cc3)sc21` [Example 357, 3-Benzyl-1-methyl-2,4-dioxo-1,2,3,4-tetrahydro-thieno[2,3-d]pyrimidine-6-carboxylic acid 4-chloro-benzylamide], the negative-log IC50 (pIC50) is 6.49.

For the molecule `CC(NC(=O)c1cc2c(=O)n(Cc3ccccc3)c(=O)n(C)c2s1)c1ccccc1` (stereo not shown) [Example 358, 3-Benzyl-1-methyl-2,4-dioxo-1,2,3,4-tetrahydro-thieno[2,3-d]pyrimidine-6-carboxylic acid (1-phenyl-ethyl)-amide], the pIC50 was less than 4.00.

Take `Cn1c(=O)n(Cc2ccccc2)c(=O)c2cc(C(=O)NCc3ccc(Cl)c(Cl)c3)sc21` [Example 359, 3-Benzyl-1-methyl-2,4-dioxo-1,2,3,4-tetrahydro-thieno[2,3-d]pyrimidine-6-carboxylic acid 3,4-dichloro-benzylamide]: the negative logarithm of the IC50 (pIC50) is 6.00.

Take `Cn1c(=O)n(Cc2ccccc2)c(=O)c2cc(C(=O)NCc3ccc(F)c(C(F)(F)F)c3)sc21` [Example 360, 3-Benzyl-1-methyl-2,4-dioxo-1,2,3,4-tetrahydro-thieno[2,3-d]pyrimidine-6-carboxylic acid 4-fluoro-3-trifluoromethyl-benzylamide]: the pIC50 was 6.57.

With `Cn1c(=O)n(Cc2ccccc2)c(=O)c2cc(C(=O)NCCc3ccccn3)sc21` [Example 361, 3-Benzyl-1-methyl-2,4-dioxo-1,2,3,4-tetrahydro-thieno[2,3-d]pyrimidine-6-carboxylic acid (2-pyridin-2-yl-ethyl)-amide], the negative-log IC50 (pIC50) was 5.11.

Consider `Cc1ccc(CCNC(=O)c2cc3c(=O)n(Cc4ccccc4)c(=O)n(C)c3s2)c(C)c1` [Example 362, 3-Benzyl-1-methyl-2,4-dioxo-1,2,3,4-tetrahydro-thieno[2,3-d]pyrimidine-6-carboxylic acid[2-(2,4-dimethyl-phenyl)-ethyl]-amide], for which the pIC50 was less than 4.00.

Take `Cn1c(=O)n(Cc2ccccc2)c(=O)c2cc(C(=O)NCCc3ccc(Cl)cc3Cl)sc21` [Example 363, 3-Benzyl-1-methyl-2,4-dioxo-1,2,3,4-tetrahydro-thieno[2,3-d]pyrimidine-6-carboxylic acid[2-(2,4-dichloro-phenyl)-ethyl]-amide]: the negative-log IC50 (pIC50) was 4.52.

For the molecule `COc1ccc(CNC(=O)c2cc3c(=O)n(CC#N)c(=O)n(C)c3s2)cc1` [Example 365, 3-Cyanomethyl-1-methyl-2,4-dioxo-1,2,3,4-tetrahydro-thieno[2,3-d]pyrimidine-6-carboxylic acid 4-methoxy-benzylamide], the pIC50 was 5.81.

For `COc1cccc(CNC(=O)c2cc3c(=O)n(Cc4ccc(S(=O)(=O)NC5CC5)cc4)c(=O)n(C)c3s2)c1` [Example 367, 3-(4-Cyclopropylsulfamoyl-benzyl)-1-methyl-2,4-dioxo-1,2,3,4-tetrahydro-thieno[2,3-d]pyrimidine-6-carboxylic acid 3-methoxy-benzylamide], the negative-log IC50 (pIC50) was 8.08.
